One test has as its target T1, SARS-CoV-2 3CL protease (Severe acute respiratory syndrome coronavirus 2, UniProt P0DTD1).
T1 construct: measures the activity of full-length SARS-CoV-2 3CL protease
Put plainly: SARS-CoV-2 Coronavirus 3C Protease FRET Assay. As to conditions: Examples 14-78 and 114 (second head of Table 2); Morrison equation fit, 15 nM enzyme, 25 μM peptide substrate; read-out: Geometric Mean Ki (nM) IC50. The class given is biochemical.
For the compound `CC(C)[C@H](NC(=O)C(F)(F)F)C(=O)N1C[C@H]2[C@@H]([C@H]1C(=O)NC(C[C@@H]1CCNC1=O)C(=O)COc1ccc(F)cc1F)C2(C)C` (mixture of isomers) [Example 35, (1R,2S,5S)-N-{(2RS)-4-(2,4-difluorophenoxy)-3-oxo-1-[(3S)-2-oxopyrrolidin-3-yl]butan-2-yl}-6,6-dimethyl-3-[N-(trifluoroacetyl)-L-valyl]-3-azabicyclo[3.1.0]hexane-2-carboxamide], the Ki (as a rule, the equilibrium dissociation constant of an inhibitor or competing ligand from its target) came to 2.76 nM.
As for `CC(C)[C@H](NC(=O)C(F)(F)F)C(=O)N1CC[C@@H](C)C[C@H]1C(=O)N[C@@H](C[C@@H]1CCNC1=O)C(=O)COc1ccc(F)cc1F` (relative stereo) [Example 69, (2R*,4S*)-N-{(2S)-4-(2,4-difluorophenoxy)-3-oxo-1-[(3S)-2-oxopyrrolidin-3-yl]butan-2-yl}-4-methyl-1-[N-(trifluoroacetyl)-L-valyl]piperidine-2-carboxamide], the Ki was determined as 219 nM.
Same read-out and setting: under `CC(C)[C@H](NS(C)(=O)=O)C(=O)N1CCC2(CC2)C[C@H]1C(=O)N[C@@H](C[C@@H]1CCNC1=O)C(=O)COc1ccc(F)cc1F` (single isomer, unassigned) [Example 59, (5R*)-N-{(2S)-4-(2,4-difluorophenoxy)-3-oxo-1-[(3S)-2-oxopyrrolidin-3-yl]butan-2-yl}-6-[N-(methanesulfonyl)-L-valyl]-6-azaspiro[2.5]octane-5-carboxamide, DIAST-1] stands 9.27 nM.
As for `Cc1nsnc1OCC(=O)[C@H](C[C@@H]1CCNC1=O)NC(=O)[C@@H]1[C@@H]2[C@H](CN1C(=O)[C@@H](NC(=O)C(F)(F)F)C(C)C)C2(C)C` [Example 46, (1R,2S,5S)-6,6-dimethyl-N-{(2S)-4-[(4-methyl-1,2,5-thiadiazol-3-yl)oxy]-3-oxo-1-[(3S)-2-oxopyrrolidin-3-yl]butan-2-yl}-3-[N-(trifluoroacetyl)-L-valyl]-3-azabicyclo[3.1.0]hexane-2-carboxamide], the Ki amounted to 8.21 nM.
For `CC(C)(C)[C@H](NS(=O)(=O)C(F)(F)F)C(=O)N1C[C@H]2[C@@H]([C@H]1C(=O)N[C@@H](C[C@@H]1CCNC1=O)C(=O)COc1ccc(F)c(F)c1)C2(C)C` [Example 114, (1R,2S,5S)-N-{(2S)-4-(3,4-difluorophenoxy)-3-oxo-1-[(3S)-2-oxopyrrolidin-3-yl]butan-2-yl}-6,6-dimethyl-3-[3-methyl-N-(trifluoromethanesulfonyl)-L-valyl]-3-azabicyclo[3.1.0]hexane-2-carboxamide], the Ki is 2.53 nM.

The test system of a further test is SARS-CoV-2 (USA_WA1/2020). The experiment in a line: Antiviral Activity from SARS-CoV-2 Infection (cytopathic effect, Cell Titer-Glo). The format is cell-based. As to conditions: Severe acute respiratory syndrome coronavirus 2, Vero C1008, 72 h, VeroE6 cells enriched for hACE2, MOI 0.002, 3-day incubation; tested alone or with P-gp inhibitor CP-100356 2 μM (table does not say which); read-out: Geometric Mean EC50. (Damage to the host cells serves as the signal in cytopathic effect assays.)
With `CC(C)[C@H](NC(=O)C(F)(F)F)C(=O)N1C[C@H]2[C@@H]([C@H]1C(=O)NC(C[C@@H]1CCNC1=O)C(=O)COc1ccc(F)cc1F)C2(C)C` (mixture of isomers) [Example 35, (1R,2S,5S)-N-{(2RS)-4-(2,4-difluorophenoxy)-3-oxo-1-[(3S)-2-oxopyrrolidin-3-yl]butan-2-yl}-6,6-dimethyl-3-[N-(trifluoroacetyl)-L-valyl]-3-azabicyclo[3.1.0]hexane-2-carboxamide], the EC50 (as a rule, the concentration giving half of the maximal effect) was determined as 93.8 nM.
For the compound `CC(C)[C@H](NC(=O)C(F)(F)F)C(=O)N1CC[C@@H](C)C[C@H]1C(=O)N[C@@H](C[C@@H]1CCNC1=O)C(=O)COc1ccc(F)cc1F` (relative stereo) [Example 69, (2R*,4S*)-N-{(2S)-4-(2,4-difluorophenoxy)-3-oxo-1-[(3S)-2-oxopyrrolidin-3-yl]butan-2-yl}-4-methyl-1-[N-(trifluoroacetyl)-L-valyl]piperidine-2-carboxamide], the half-maximal effective concentration (EC50) is 562 nM.
Same read-out and setting: the result for `COCC(=O)[C@H](C[C@@H]1CCNC1=O)NC(=O)[C@@H]1CC(C(C)(C)C)CCN1C(=O)[C@@H](NS(=O)(=O)C(F)(F)F)C(C)C` (single isomer, unassigned) [Example 15, (2R*,4S*)-4-tert-butyl-N-{(2S)-4-methoxy-3-oxo-1-[(3S)-2-oxopyrrolidin-3-yl]butan-2-yl}-1-[N-(trifluoromethanesulfonyl)-L-valyl]piperidine-2-carboxamide, DIAST-1] reads 272 nM; that for `Cc1ccc(OCC(=O)[C@H](C[C@@H]2CCNC2=O)NC(=O)[C@@H]2[C@@H]3[C@H](CN2C(=O)[C@@H](NC(=O)C(F)(F)F)C(C)C)C3(C)C)cn1` [Example 18, (1R,2S,5S)-6,6-dimethyl-N-{(2S)-4-[(6-methylpyridin-3-yl)oxy]-3-oxo-1-[(3S)-2-oxopyrrolidin-3-yl]butan-2-yl}-3-[N-(trifluoroacetyl)-L-valyl]-3-azabicyclo[3.1.0]hexane-2-carboxamide], 114 nM.
For the compound `Cc1ccc(OCC(=O)[C@H](C[C@@H]2CCNC2=O)NC(=O)[C@@H]2[C@@H]3[C@H](CN2C(=O)[C@@H](NC(=O)C(F)(F)F)C(C)(C)C)C3(C)C)cn1` [Example 19, (1R,2S,5S)-6,6-dimethyl-N-{(2S)-4-[(6-methylpyridin-3-yl)oxy]-3-oxo-1-[(3S)-2-oxopyrrolidin-3-yl]butan-2-yl}-3-[3-methyl-N-(trifluoroacetyl)-L-valyl]-3-azabicyclo[3.1.0]hexane-2-carboxamide], the concentration for a half-maximal effect (EC50) is 37.2 nM.
Still for that read-out and setting: the result for `CC(C)(C)[C@H](NC(=O)C(F)(F)F)C(=O)N1C[C@H]2[C@@H]([C@H]1C(=O)N[C@@H](C[C@@H]1CCNC1=O)C(=O)COc1ccccc1)C2(C)C` [Example 20, (1R,2S,5S)-6,6-dimethyl-3-[3-methyl-N-(trifluoroacetyl)-L-valyl]-N-{(2S)-3-oxo-1-[(3S)-2-oxopyrrolidin-3-yl]-4-phenoxybutan-2-yl}-3-azabicyclo[3.1.0]hexane-2-carboxamide] reads 14.7 nM.
On to `CCc1cc(OCC(=O)[C@H](C[C@@H]2CCNC2=O)NC(=O)[C@@H]2[C@@H]3[C@H](CN2C(=O)[C@@H](NC(=O)C(F)(F)F)C(C)(C)C)C3(C)C)n(C)n1` [Example 26, (1R,2S,5S)-N-{(2S)-4-[(3-ethyl-1-methyl-1H-pyrazol-5-yl)oxy]-3-oxo-1-[(3S)-2-oxopyrrolidin-3-yl]butan-2-yl}-6,6-dimethyl-3-[3-methyl-N-(trifluoroacetyl)-L-valyl]-3-azabicyclo[3.1.0]hexane-2-carboxamide], for which the EC50 was 171 nM.
Same read-out and setting: the result for `CC(C)[C@H](NC(=O)C(F)(F)F)C(=O)N1C[C@H]2[C@@H]([C@H]1C(=O)N[C@@H](C[C@@H]1CCNC1=O)C(=O)COc1ccc(F)nc1)C2(C)C` [Example 31, (1R,2S,5S)-N-{(2S)-4-[(6-fluoropyridin-3-yl)oxy]-3-oxo-1-[(3S)-2-oxopyrrolidin-3-yl]butan-2-yl}-6,6-dimethyl-3-[N-(trifluoroacetyl)-L-valyl]-3-azabicyclo[3.1.0]hexane-2-carboxamide] reads 167 nM; that for `COC(=O)N[C@H](C(=O)N1C[C@H]2[C@@H]([C@H]1C(=O)N[C@@H](C[C@@H]1CCNC1=O)C(=O)COc1cc(C(F)(F)F)nn1C)C2(C)C)C(C)C` [Example 36, methyl {(2S)-1-[(1R,2S,5S)-6,6-dimethyl-2-({(2S)-4-{[1-methyl-3-(trifluoromethyl)-1H-pyrazol-5-yl]oxy}-3-oxo-1-[(3S)-2-oxopyrrolidin-3-yl]butan-2-yl}carbamoyl)-3-azabicyclo[3.1.0]hexan-3-yl]-3-methyl-1-oxobutan-2-yl}carbamate], 256 nM; that for `CCc1cc(OCC(=O)[C@H](C[C@@H]2CCNC2=O)NC(=O)[C@@H]2[C@@H]3[C@H](CN2C(=O)[C@@H](NC(=O)OC)C(C)(C)C)C3(C)C)n(C)n1` [Example 37, methyl {(2S)-1-[(1R,2S,5S)-2-({(2S)-4-[(3-ethyl-1-methyl-1H-pyrazol-5-yl)oxy]-3-oxo-1-[(3S)-2-oxopyrrolidin-3-yl]butan-2-yl}carbamoyl)-6,6-dimethyl-3-azabicyclo[3.1.0]hexan-3-yl]-3,3-dimethyl-1-oxobutan-2-yl}carbamate], 900 nM.
As to `CCn1nc(C)cc1OCC(=O)[C@H](C[C@@H]1CCNC1=O)NC(=O)[C@@H]1[C@@H]2[C@H](CN1C(=O)[C@@H](NC(=O)C(F)(F)F)C(C)C)C2(C)C` [Example 43, (1R,2S,5S)-N-{(2S)-4-[(1-ethyl-3-methyl-1H-pyrazol-5-yl)oxy]-3-oxo-1-[(3S)-2-oxopyrrolidin-3-yl]butan-2-yl}-6,6-dimethyl-3-[N-(trifluoroacetyl)-L-valyl]-3-azabicyclo[3.1.0]hexane-2-carboxamide], the EC50 came out at 642 nM.
Regarding `CCc1cc(OCC(=O)[C@H](C[C@@H]2CCNC2=O)NC(=O)[C@@H]2[C@@H]3[C@H](CN2C(=O)[C@@H](NC(=O)C(F)(F)F)C(C)C)C3(C)C)n(C)n1` [Example 45, (1R,2S,5S)-N-{(2S)-4-[(3-ethyl-1-methyl-1H-pyrazol-5-yl)oxy]-3-oxo-1-[(3S)-2-oxopyrrolidin-3-yl]butan-2-yl}-6,6-dimethyl-3-[N-(trifluoroacetyl)-L-valyl]-3-azabicyclo[3.1.0]hexane-2-carboxamide], the EC50 amounted to 384 nM.
`CC(C)[C@H](NC(=O)C(F)(F)F)C(=O)N1C[C@H]2[C@@H]([C@H]1C(=O)N[C@@H](C[C@@H]1CCNC1=O)C(=O)COc1nnc(C(C)(C)C)n1C)C2(C)C` [Example 78, (1R,2S,5S)-N-{(2S)-4-[(5-tert-butyl-4-methyl-4H-1,2,4-triazol-3-yl)oxy]-3-oxo-1-[(3S)-2-oxopyrrolidin-3-yl]butan-2-yl}-6,6-dimethyl-3-[N-(trifluoroacetyl)-L-valyl]-3-azabicyclo[3.1.0]hexane-2-carboxamide]: the EC50 amounted to 7370 nM.

The test is the same for the next values; noted with them: VeroE6 cells enriched for hACE2, MOI 0.002, 3-day incubation; tested alone or with P-gp inhibitor CP-100356 2 μM (table does not say which); read-out: Geometric Mean EC50.
`CC(C)[C@H](NS(C)(=O)=O)C(=O)N1CCC(C(F)(F)F)C[C@H]1C(=O)N[C@@H](C[C@@H]1CCNC1=O)C(=O)COc1ccc(F)cc1F` (single isomer, unassigned) [Example 41, (2R*,4S*)-N-{(2S)-4-(2,4-difluorophenoxy)-3-oxo-1-[(3S)-2-oxopyrrolidin-3-yl]butan-2-yl}-1-[N-(methanesulfonyl)-L-valyl]-4-(trifluoromethyl)piperidine-2-carboxamide, DIAST-2]: the EC50 came to 224 nM.
In the case of `CC(C)[C@H](NS(C)(=O)=O)C(=O)N1CCC2(CC2)C[C@H]1C(=O)N[C@@H](C[C@@H]1CCNC1=O)C(=O)COc1ccc(F)cc1F` (single isomer, unassigned) [Example 59, (5R*)-N-{(2S)-4-(2,4-difluorophenoxy)-3-oxo-1-[(3S)-2-oxopyrrolidin-3-yl]butan-2-yl}-6-[N-(methanesulfonyl)-L-valyl]-6-azaspiro[2.5]octane-5-carboxamide, DIAST-1], the EC50 was found to be 299 nM.
On the same count and under the same terms, the result for `CC(C)[C@H](NS(C)(=O)=O)C(=O)N1CCC(C(F)(F)F)C[C@H]1C(=O)N[C@@H](C[C@@H]1CCNC1=O)C(=O)COc1ccc(F)cc1F` (single isomer, unassigned) [Example 71, (2R*,4S*)-N-{(2S)-4-(2,4-difluorophenoxy)-3-oxo-1-[(3S)-2-oxopyrrolidin-3-yl]butan-2-yl}-1-[N-(methanesulfonyl)-L-valyl]-4-(trifluoromethyl)piperidine-2-carboxamide, DIAST-1] reads 8310 nM.

The record behind these values is patent US20250304559A1, “Ether-Linked Antiviral Compounds” (Pfizer Inc., priority 2021, published 2025).
